This is an account of results in the METLIN SMRT retention time set (Domingo-Almenara et al. 2019).

The nature of this data set: gradient 5% acetonitrile 3 min, to 50% in 2 min, to 85% in 15 min, held 3 min, 100 µL/min. The conditions noted are these: column: Zorbax Extend-C18 2.1 x 50 mm; eluents: water / acetonitrile, 0.1% formic acid. The method, boiled down:
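Retention time was recorded from adduct peaks, which were picked computationally and each inspected manually. Pure standards ran in mixtures of ~100 molecules on HPLC coupled to a quadrupole time-of-flight mass spectrometer, in positive and negative ionization mode, through a Zorbax Extend-C18 column (2.1 × 50 mm, 1.8 μm) at 100 μL/min. Eluents were water and acetonitrile, each with 0.1% formic acid.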
For the compound `CCCNC(=O)C1CCCN(c2nc3ncn(CC(=O)Nc4ccccc4OCC)c(=O)c3s2)C1` (stereo not given), the RP-LC retention time was 742 s. For `Cc1cccc(-n2c(=O)c3c(cc(C)n3C)n(CC(=O)Nc3c(C)cccc3C)c2=O)c1` the value was 906 s; for `Cn1cc(S(=O)(=O)N2CCOCC2)cc1C(=O)N1CCN(c2ccc(F)cc2)CC1`, 806 s; for `CCC(C)(C)C(=O)N1CC(c2nc(-c3ccccc3)no2)C2(CCOCC2)C1` (stereo not given), 553 s.

On to `COCCOC1CCN(C(=O)Nc2ccc3c(c2)OCCO3)CC1`, for which the RP-LC retention time was 668 s.

The compound `O=C(c1ccccc1Cl)N1CCN(Cc2noc3ccccc23)CC1` registered an RP-LC retention time of 755 s.

`CCOC(=O)c1[nH]c(C)c(CCC(=O)N2CCC(C(=O)NCCCN3CCCCC3)CC2)c1C` had an RP-LC retention time of 607 s.

As to `Cc1c(N2CCN(C(=O)C3CCCCC3)CC2)c(=O)n(C)c(=O)n1-c1ccccc1`, the RP-LC retention time worked out at 881 s. `CCOC(=O)C1CCN(C(=O)C2CCN(c3cncnc3N3CCCCC3)CC2)CC1` returned an RP-LC retention time of 651 s. Then `Cc1c(C(=O)N2CCN(C(C)C)CC2)cnn1-c1cc(-c2nc(C(C)(C)C)no2)ccn1`, with 685 s; and `CC(C)NC(=O)C1CCCN(c2nc3ncn(CC(=O)NCc4ccccc4)c(=O)c3s2)C1` (stereo not given), with 672 s. Then `N#Cc1c(N)nc(N)nc1Nc1ccc(Br)cc1`, with 777 s; and `COc1ccc(CN2C(=O)C3(CCOCC3)CC2c2nnnn2C(C)(C)C)cc1` (stereo not given), with 760 s; and `O=C(Cn1ccc2ccc(N3CCOCC3)nc21)NC1CCN(Cc2ccccc2)CC1`, with 638 s. The compound `O=C(NCC1CCN(c2cc(-c3ccncc3)[nH]n2)CC1)c1ccc2cc[nH]c2c1` had an RP-LC retention time of 584 s.

In the case of `CCNc1cc(N2CCC(CCC(=O)NC3CCN(C(=O)OCC)CC3)CC2)ncn1`, the RP-LC retention time was determined as 620 s. `O=C(Cc1ccccc1F)N1CCN(c2cc(-c3cccs3)[nH]n2)CC1` yielded an RP-LC retention time of 794 s. As for `CCOC(=O)N1CCN(C(=O)C2CCC(CNS(=O)(=O)CC)CC2)CC1` (stereo not given), the RP-LC retention time was 631 s. For `O=C(NCCc1ccccc1)N1CCN(c2ncccc2-c2nnc(C3CC3)o2)CC1` the value was 765 s. Then `O=C(NCC1CCCCC1)C1CCCN(c2ccc(-c3ccccc3)nn2)C1` (stereo not given), with 762 s; and `Cc1cccc(NC(=O)NCC(c2cccnc2)c2c[nH]c3ccccc23)c1` (stereo not given), with 673 s. With `CCc1ccc(Nc2c(C(=O)N3CCCCC3C)cnc3nc(C)ccc23)cc1` (stereo not given), the RP-LC retention time was 674 s.

`CCOc1ccccc1NC(=O)N1CCN(Cc2nc3cc(Cl)ccc3o2)CC1` displayed an RP-LC retention time of 867 s. The compound `CCOC(=O)c1noc2ncnc(N3CCCc4ccccc43)c12` showed an RP-LC retention time of 988 s.

`CCn1c(=O)c2ccccc2n(Cc2nc(-c3ccc(F)cc3)no2)c1=O` showed an RP-LC retention time of 1010 s. For the compound `Cc1nc2nc(-c3ccccc3)nn2c(Sc2ccccc2N)c1C`, the RP-LC retention time is 710 s. With `COc1ccc(CNC(=O)c2cn(C)nc2S(=O)(=O)N2CCSCC2)c(OC)c1`, the RP-LC retention time came to 855 s.

`COc1ccc(C)cc1NC(=O)NCCNC(=O)c1ccc(NC(=O)C2CCCC2)cc1` displayed an RP-LC retention time of 759 s.

The compound `COc1ccc(C2(C(=O)N3CC(n4ccnc4C(C)C)C3)CC2)cc1` had an RP-LC retention time of 626 s. Consider `Cc1cccc(-n2nc(C)c3sc(N(C)CC(=O)N4CCN(c5ccccn5)CC4)nc32)c1`, for which the RP-LC retention time came to 700 s. Compound `CCS(=O)(=O)N1CCc2c(c(CN(C(=O)c3ccccc3F)c3ccccc3)nn2C)C1` displayed an RP-LC retention time of 774 s. `CCc1nc2c(c(=O)n1CC(=O)NCc1ccc(C)cc1)CN(Cc1ccccc1)CC2` gave an RP-LC retention time of 661 s. For `CC1CCN(c2cc(-c3nccn3CC(=O)NC3CCCCC3)ccn2)CC1`, the RP-LC retention time is 675 s. Regarding `O=C(NC1CCCC1)c1cccc2c1CCN2C(=O)c1ccc(F)cc1`, the RP-LC retention time is 862 s. Regarding `Cc1nc(-c2ccc3c(c2)n(CC(=O)NC2CC2)c(=O)n3C(C)C)no1`, the RP-LC retention time worked out at 685 s. Regarding `O=C(c1ccc(S(=O)(=O)c2ccc(Cl)cc2)s1)N1CCN(c2ccccn2)CC1`, the RP-LC retention time was determined as 702 s. Compound `CCS(=O)(=O)N1CCOc2ccc(CCC(=O)NC3CC3)cc2C1` showed an RP-LC retention time of 675 s. The compound `CCN(C(=O)Cn1nc2cc(-c3ccccc3)nc(C)n2c1=O)c1cccc(C)c1` registered an RP-LC retention time of 862 s. Regarding `COc1ccc(NC(=O)CN2CCc3[nH]c4ccc(OC)cc4c(=O)c3C2)c(OC)c1`, the RP-LC retention time stood at 609 s. The compound `CCCN1CCN(CCCNC(=O)Cn2c3ccccc3c3cnn(C)c(=O)c32)CC1` came in with an RP-LC retention time of 560 s. As to `Cc1cccc(NC(=O)CS(=O)(=O)Cc2ccccc2)n1`, the RP-LC retention time turned out to be 707 s. Turning to `COc1ccc(NC(=O)Cn2c(C)cc(-c3nnc(C)o3)c2C)cc1`, the RP-LC retention time was found to be 732 s. With `Cn1nc(-c2nnc(-c3ccccc3Cl)o2)c2c1CCN(C(=O)NC1CCCCC1)C2`, the RP-LC retention time was 899 s. For `CCn1cc(-c2nc(C)c(C(=O)NCc3cccc(OC)c3)s2)c2cccnc21` the value was 904 s. With `Cc1cccc(-c2nc3c4ccccc4nc(N4CCN(c5ccccn5)CC4)n3n2)c1`, the RP-LC retention time turned out to be 921 s. The compound `CCc1nc(NCc2ccccn2)ncc1C(=O)O` registered an RP-LC retention time of 557 s. Compound `COC(=O)CNC(=O)N1CCCCCC1c1ccc(Cl)cc1` (stereo not given) gave an RP-LC retention time of 870 s. For the compound `O=C(NCCc1ccccc1)C(=O)NCC1OCCc2ccccc21` (stereo not given), the RP-LC retention time is 946 s. For `Cc1cnc(C2CCOCC2)n1C1CCCN(S(=O)(=O)Cc2ccccc2)C1` (stereo not given) the value was 646 s.

For `CC(C)NC(=O)c1cc2c(s1)N(CC1CC1)CCCC2`, the RP-LC retention time turned out to be 1080 s. As for `CC1=NS(=O)(=O)N(C)C=C1C(=O)OCc1nc(Cc2ccc(C)cc2)no1`, the RP-LC retention time turned out to be 956 s. On to `O=C(c1nc(-c2ccnc(N3CCCCC3)c2)no1)N1CCCCC1`, for which the RP-LC retention time amounted to 764 s.

`CCOC(=O)c1c(C)[nH]c(CCC(=O)NCc2cn[nH]c2C)c1C` registered an RP-LC retention time of 626 s. For `O=C(Nc1nnc(C2=COCCO2)o1)C1CCN(S(=O)(=O)c2cccs2)CC1`, the RP-LC retention time came to 643 s.

Compound `CCc1ccc(-c2cn3cc(C(=O)NC4CC4)ccc3n2)cc1` displayed an RP-LC retention time of 655 s. Then `O=C(CN1C(=O)CC(c2cccs2)=Nc2ccccc21)Nc1ccccc1F`, with 910 s; and `CCN(C(=O)C1CCCN1S(=O)(=O)c1cc2c(cc1Cl)NC(=O)CO2)c1cccc(C)c1` (stereo not given), with 816 s. Turning to `Cc1cc2c(cc1S(=O)(=O)N1CCCC1C(=O)N1CCCCC1)OC(C)C(=O)N2` (stereo not given), the RP-LC retention time came out at 710 s.

The compound `COc1ccc(C(C)NC(=O)COc2ccc(NC(=O)C3CC3)cn2)cc1OC` (stereo not given) returned an RP-LC retention time of 689 s. Take `Cc1[nH]c(C(=O)N2CCC(CC(=O)NC3CCCCC3)CC2)c(C)c1C(=O)OC(C)C`: the RP-LC retention time came to 825 s. For the compound `COc1cccc(OCC(=O)N2CC(=O)Nc3ccccc32)c1`, the RP-LC retention time was determined as 869 s. Compound `Cc1nc(-c2noc(-c3cccnc3)n2)cn1CC(=O)NC(C)c1ccccc1` (stereo not given) showed an RP-LC retention time of 684 s. `Cc1nc(-c2ccc3c(c2)n(CC(=O)NCCC2=CCCCC2)c(=O)n3C(C)C)no1` showed an RP-LC retention time of 915 s. Turning to `COCCn1c(CCCC(=O)N2CCN(c3ncccn3)CC2)nc2cccnc21`, the RP-LC retention time worked out at 596 s.

`CN(C)c1ccc(CNC(=O)CN2C(=O)CCc3cc(Br)ccc32)cc1` registered an RP-LC retention time of 651 s. On to `CCC(=Cc1ccc(CC)cn1)CC`, for which the RP-LC retention time is 686 s. Then `CSc1nc2ccc(NC(=O)c3cccs3)cc2s1`, with 837 s; and `CN1C(=O)c2cc(C(=O)NCc3cccc(F)c3)nn2CC1(C)C(=O)NC1CCCC1` (stereo not given), with 750 s.

As to `COCCc1noc(C2CN(C(=O)C3COc4ccccc4O3)C2)n1` (stereo not given), the RP-LC retention time was determined as 736 s. For `CC1(C(=O)NC2CCCCCCC2)CN(S(C)(=O)=O)CC(=O)N1Cc1ccc(F)cc1` (stereo not given) the value was 740 s; for `O=S(=O)(NCc1ccc(F)cc1)c1ccc(N2CCCCS2(=O)=O)cc1`, 777 s. Then `COc1ccc(C)cc1NC(=O)Cn1nc(N2CCOCC2)c2ccccc2c1=O`, with 856 s. For `O=C(Nc1ccc2c(c1)OCCO2)N1CC[C@@H]2COC(=O)N(Cc3ccccc3)[C@@H]2C1` the value was 724 s; for `Cc1ccc(-c2cc(C(=O)NCCN(C)C)n(C)c2)cc1`, 657 s. `O=C(CCn1cnc2c(cnn2-c2ccccc2)c1=O)N1CCN(C(=O)c2ccco2)CC1`: the RP-LC retention time stood at 653 s. `CCC(C)NC(=O)NC1CCN(c2nc3cccnc3n(Cc3ccc(C)cc3)c2=O)CC1` (stereo not given) returned an RP-LC retention time of 1040 s. `O=C(Cn1c(=O)n(C2CC2)c(=O)c2nscc21)NCCC1=CCCCC1` came in with an RP-LC retention time of 776 s.

With `CCOC(=O)c1ccc(NC(=O)N2CCc3nc[nH]c3C2)cc1`, the RP-LC retention time turned out to be 609 s. Then `NC(=O)c1c(NC(=O)c2ccc(Br)s2)sc2c1CCCCC2`, with 1040 s. For `CCCN1CCN(C(=O)CN2C(=O)C3CCCCN3c3ccc(S(=O)(=O)N(C)C)cc32)CC1` (stereo not given) the value was 628 s.
